Holding throughout (format): cell-based
For assay [1], the system named is HeLa cells (human cervical adenocarcinoma cells). Description: Proliferation assay (alamarBlue) with HeLa cells. Particulars: compound at 20 μM. From the text: (§1) The antiproliferative activities of compounds falling under formula (Ia), (Tb) and (Ic), respectively, were investigated on cells or cell lines originating from a disorder of the haematopoietic system, including the myeloid cell compartment and the lymphoid cell compartment (T-cells and B-cells), the neuroendocrine system, the cervix, the breast, the ovaries, the lung, the gastrointestinal tract, and the mucosal epithelium, as well as from the skin epithelium and from the muscle. To this end, HL-60 cells, NB-4 cells, HH cells, RPMI-8402 cells, TANOUE cells, TT cells, HeLa cells, MDA-MB-231 cells, FU-OV-1 cells, LOU-NH91 cells, 23132/87 cells, CAL-27 cells, BHY cells, SCC-25 cells, A-431 cells, human primary epidermal keratinocytes (HPEK), and C2C12 cells were seeded into 96-well plates suitable for fluorescence assays (CORNING #3598) at following initial cell numbers: 1000 cells per well for HL-60; 1000 cells per well for NB-4; 5000 cells per well for HH; 5000 cells per well for RPMI-8402; 1500 cells per well for TANOUE; 9000 cells per well for TT; 2000 cells per well for HeLa; 3000 cells per well for MDA-MB-231; 3000 cells per well for FU-OV-1; 4000 cells per well for LOU-NH91; 2000 cells per well for 23132/87; 2000 cells per well for CAL-27; 1500 cells per well for BHY; 1500 cells per well for SCC-25; 700 cells per well for A-431; 1000 cells per well for HPEK; 500 cells per well for C2-C12. […] The readout was taken with a multi-well plate-reader in the fluorescence mode with applying a filter for excitation at 560 nm (band width 10 nm) and for emission at 590 nm (band width 10 nm). […]
(§2) The assays were performed in duplicate or more replicates of independent single experiments each containing a six-fold replicate for every condition. For every individual plate, the measured fluorescence intensity values of the conditions with compound treatment were normalized against the corresponding equally weighted arithmetic mean of the fluorescence intensity values of the six DMSO treated control wells in order to obtain the relative values to a baseline level of 1.0. […]
A general note: Resazurin is reduced to fluorescent resorufin, in cell work by metabolically active cells.

Assay [2] deals with FU-OV-1 cells (human ovarian carcinoma cells). Description: Proliferation assay (alamarBlue) with FU-OV-1 cells. The conditions noted are these: 20 μM.
Source text: as §1, §2

For assay [3], the system named is HL-60 cells (human acute myeloid leukemia cells). Put plainly: Proliferation assay (alamarBlue) with HL-60 cells. Particulars: for activity at 20 µM: Homo sapiens, Table 30, compound at 20 μM, read-out: Activity Range (AVEw, weighted arithmetic mean of normalized fluorescence intensity, DMSO = 1.0). The text has this:
(§3) The antiproliferative activities of compounds falling under formula (Ia), (Tb) and (Ic), respectively, were investigated on cells or cell lines originating from a disorder of the haematopoietic system, including the myeloid cell compartment and the lymphoid cell compartment (T-cells and B-cells), the neuroendocrine system, the cervix, the breast, the ovaries, the lung, the gastrointestinal tract, and the mucosal epithelium, as well as from the skin epithelium and from the muscle. To this end, HL-60 cells, NB-4 cells, HH cells, RPMI-8402 cells, TANOUE cells, TT cells, HeLa cells, MDA-MB-231 cells, FU-OV-1 cells, LOU-NH91 cells, 23132/87 cells, CAL-27 cells, BHY cells, SCC-25 cells, A-431 cells, human primary epidermal keratinocytes (HPEK), and C2C12 cells were seeded into 96-well plates suitable for fluorescence assays (CORNING #3598) at following initial cell numbers: 1000 cells per well for HL-60; 1000 cells per well for NB-4; 5000 cells per well for HH; 5000 cells per well for RPMI-8402; 1500 cells per well for TANOUE; 9000 cells per well for TT; 2000 cells per well for HeLa; 3000 cells per well for MDA-MB-231; 3000 cells per well for FU-OV-1; 4000 cells per well for LOU-NH91; 2000 cells per well for 23132/87; 2000 cells per well for CAL-27; 1500 cells per well for BHY; 1500 cells per well for SCC-25; 700 cells per well for A-431; 1000 cells per well for HPEK; 500 cells per well for C2-C12. The cells were treated with compounds at indicated final concentrations (diluted from the 1000× stock-solutions in DMSO to a final DMSO concentration of 0.1% v/v in H2O (Water For Injection, WFI, Fisherscientific #10378939)) or with the empty carrier DMSO at 0.1% v/v as control for 5 days. At day 5 after starting the treatments the cells were subjected to the alamarBlue® Proliferation Assay (Bio-Rad Serotec GmbH, BUF012B) according to the protocol of the manufacturer. The readout was taken with a multi-well plate-reader in the fluorescence mode with applying a filter for excitation at 560 nm (band width 10 nm) and for emission at 590 nm (band width 10 nm). Control treatments for growth inhibition with commercial compounds such as Methotrexate (MTREX) and Resveratrol (RES) were included on every plate. Some of the test compounds of the present invention were obtained and applied as their salts. According cases are indicated in the column “Specification” in Table 30 to Table 62 and by their sum formula in Table 63.
(§4) The assays were performed in duplicate or more replicates of independent single experiments each containing a six-fold replicate for every condition. For every individual plate, the measured fluorescence intensity values of the conditions with compound treatment were normalized against the corresponding equally weighted arithmetic mean of the fluorescence intensity values of the six DMSO treated control wells in order to obtain the relative values to a baseline level of 1.0.
(§5) Two independent outlier analyses were performed according to the methods by Peirce and Chauvenet (Ross, Journal of Engineering Technology 2003, 1-12). Outliers confirmed by at least one of the methods were excluded from the calculations but not more than one value out of six per compound within a single experiment. The weighted arithmetic mean (here abbreviated as AVEw) for each compound was calculated from the normalized values over all independent replicates of the single experiments comprising the six replicates each. The corresponding standard deviation for the weighted arithmetic mean was calculated according to the method described by Bronstein et al. (Bronstein, Semendjajew, Musiol, Muhlig, Taschenbuch der Mathematik, 5th edition 2001 (German), publisher: Verlag Harri Deutsch, Frankfurt am Main and Thun) and was combined with the Gauβ′ error propagation associated with the performed calculation for the normalization. The resulting standard deviation is herein referred to as “combined standard deviation”. […]

Assay [4] has as its system TT cells (human medullary thyroid carcinoma cells). Description: Proliferation assay (alamarBlue) with TT cells. Particulars: compound at 20 μM.
Source text: as §1, §2

Assay [5] concerns A-431 cells (human epidermoid squamous cell carcinoma cells). Put plainly: Proliferation assay (alamarBlue) with A-431 cells. Particulars: for activity at 20 µM: Homo sapiens, read-out: Activity Range: weighted arithmetic mean (AVEw) of normalized fluorescence intensity relative to DMSO basis level 1.0.
Source text: as §3, §4, §5

In assay [6] the test system is 23132/87 cells (human gastric adenocarcinoma cells). Description: Proliferation assay (alamarBlue) with 23132/87 cells. The conditions noted are these: read-out: Activity Range: weighted arithmetic mean (AVEw) of normalized fluorescence intensity relative to DMSO basis level 1.0.
Source text: as §3, §4, §5

Assay [7] has as its system SCC-25 cells (human tongue squamous cell carcinoma cells). Description: Proliferation assay (alamarBlue) with SCC-25 cells. Particulars: Homo sapiens, read-out: Activity Range: weighted arithmetic mean (AVEw) of normalized fluorescence intensity relative to DMSO basis level 1.0.
Source text: as §3, §4, §5

Assay [8] relates to CAL-27 cells (human tongue squamous cell carcinoma cells). Put plainly: Proliferation assay (alamarBlue) with CAL-27 cells. The conditions noted are these: read-out: Activity Range: weighted arithmetic mean (AVEw) of normalized fluorescence intensity relative to DMSO basis level 1.0.
Source text: as §3, §4, §5

Assay [9] deals with LOU-NH91 cells (human lung squamous cell carcinoma cells). Put plainly: Proliferation assay (alamarBlue) with LOU-NH91 cells. Particulars: 20 μM.
Source text: as §1, §2

For assay [10], the system named is C2C12 cells (murine myoblast cells). Put plainly: Proliferation assay (alamarBlue) with C2C12 cells. Particulars: Mus musculus, compound at 20 μM, read-out: Activity Range: weighted arithmetic mean (AVEw) of normalized fluorescence intensity, relative to DMSO basis level 1.0.
Source text: as §3, §4, §5

In assay [11] the test system is HH cells (human cutaneous T-cell lymphoma cells). Description: Proliferation assay (alamarBlue) with HH cells. Particulars: Table 34, compound at 20 μM, read-out: Activity Range (AVEw, weighted arithmetic mean of normalized fluorescence intensity, DMSO = 1.0).
Source text: as §3, §4, §5

Assay [12] deals with BHY cells (human oral squamous cell carcinoma cells). Put plainly: Proliferation assay (alamarBlue) with BHY cells. Particulars: read-out: Activity Range: weighted arithmetic mean (AVEw) of normalized fluorescence intensity relative to DMSO basis level 1.0.
Source text: as §3, §4, §5

The subject of assay [13] is NB-4 cells (human acute promyelocytic leukemia cells). Description: Proliferation assay (alamarBlue) with NB-4 cells. The conditions noted are these: for activity at 20 µM: Homo sapiens, Table 32, compound at 20 μM, read-out: Activity Range (AVEw, weighted arithmetic mean of normalized fluorescence intensity, DMSO = 1.0).
Source text: as §3, §4, §5

Assay [14] relates to TANOUE cells (human B cell leukemia cells). Put plainly: Proliferation assay (alamarBlue) with TANOUE cells. Particulars: Homo sapiens, B-cell, read-out: Activity Range: weighted arithmetic mean (AVEw) of normalized fluorescence intensity relative to DMSO basis level 1.0.
Source text: as §3, §4, §5

Assay [15] relates to MDA-MB-231 cells (human breast carcinoma cells). Put plainly: Proliferation assay (alamarBlue) with MDA-MB-231 cells. Particulars: Homo sapiens, read-out: Activity Range: weighted arithmetic mean (AVEw) of normalized fluorescence intensity relative to DMSO basis level 1.0.
Source text: as §3, §4, §5

Assay [16] has as its system RPMI-8402 cells (human T cell acute lymphoblastic leukemia cells). Description: Proliferation assay (alamarBlue) with RPMI-8402 cells. The conditions noted are these: Homo sapiens, read-out: Activity Range: weighted arithmetic mean (AVEw) of normalized fluorescence intensity relative to DMSO basis level 1.0.
Source text: as §3, §4, §5

Assay [17] deals with HPEKp cells (human epidermal keratinocyte progenitors, pooled). Put plainly: Proliferation assay (alamarBlue) with HPEKp cells. The conditions noted are these: compound at 10 μM, read-out: Activity Range: weighted arithmetic mean (AVEw) of normalized fluorescence intensity, relative to DMSO basis level 1.0.
Source text: as §3, §4, §5

SMILES strings stand for the structures.

Regarding `CN(Cc1cnc2nc(N)nc(N)c2n1)c1ccc(C(=O)N[C@@H](CCC(=O)O)C(=O)O)cc1` [MTREX, Methotrexate, reference compound], the “Activity Range: weighted arithmetic mean (AVEw) of normalized fluorescence intensity relative to DMSO basis level 1.0” value came to 0.4 ± 0.0 in assay [1]; 1 ± 0.0 in assay [2]; 1.0 ± 0.0 in assay [4]; 0.2 ± 0.1 in [5] (compound at 20 μM); 0.5 ± 0.1 in [9]. The activity at 20 µM in [3] is 10 ± 10%; in assay [5], 20 ± 10%; in assay [6], 30%; in assay [7], 50 ± 10%; in [8] it was 10%; in assay [10] it was 10%. Further, the activity at 20 µM in assay [11] came to 40 ± 10%; in assay [12], 30%; in [13], 10%; in assay [14], 10%; in assay [15], 60%; in assay [16], 10%. Also, the “Activity Range (AVEw, weighted arithmetic mean of normalized fluorescence intensity, DMSO = 1.0)” value in assay [3] (Table 31, compound at 20 μM) stood at 0.1 ± 0.1; in assay [13] (Table 33, compound at 20 μM), 0.1 ± 0.0.
Turning to `COC1(c2ccc(Oc3ccc(C45CC6CC(CC(C6)C4)C5)cc3)cc2)CN(C)C1` [XPA-0238, 3-(4-(4-((3r,5r,7r)-adamantan-1-yl)phenoxy)phenyl)-3-methoxy-1-methylazetidine], the activity at 20 µM in assay [3], in assay [5], in assay [6], in assay [7], in [8] and in assay [10] was 0 to 20% each time. Besides, the activity at 20 µM in [11], in assay [12], in assay [13], in assay [14], in assay [15] and in assay [16] was 0 to 20% throughout. In [17], the activity at 10 µM lay within 40 to 60%.
`c1ccc(COC2(c3ccc(Oc4ccc(C5CCCCC5)cc4)cc3)CNC2)cc1` [XPA-1317, 3-(benzyloxy)-3-(4-(4-cyclohexylphenoxy)phenyl)azetidine]: the activity at 20 µM in assay [3], in assay [5], in assay [6], in assay [7], in [8] and in assay [10] was 0 to 20% each time. The activity at 20 µM in [11], in assay [12], in assay [13], in [14], in assay [15] and in assay [16] was 0 to 20% in each case. In addition, the activity at 10 µM in assay [17] fell in the range of 0 to 20%.

Source of the values: US20240140895A1, “NOVEL AROMATIC MOLECULES” (XENIOPRO GmbH, priority 2018, published 2024).
